Experimental data from patent publication US20200405715A1, “COMPOSITIONS AND METHODS FOR TREATING CANCER AND INFLAMMATORY DISEASES” (University of Pittsburgh - Of the Commonwealth System of …, priority 2016, published 2020).

Legend:
HepG2 cells [1] = experiment: Cell morphology under white field microscopy; format: cell-based; conditions: 10 μM, time dependent (FIG. 6C)
Experimental: HepG2 cells were treated with 3-(decylamino)-5-phenylcyclohex-2-en-1-one at 10 μM for various times. At each time point, cells were analyzed by BrdU uptake and 7-AAD staining, G0, G1, S, G2/M phase cells were then quantitated and graphed. […] Cells were then observed under white field microscopy.

[2] = test system: Clvd-caspase3 and Clvd-PARP; experiment: Apoptosis markers, protein immunoblotting in HepG2 cells; format: cell-based
HepG2 cells [3] = experiment: Mitotic spindle immunostaining (α-tubulin, DAPI); format: cell-based; conditions: 1 uM, 24 h (FIG. 7B)
Experimental: Cells were then washed with PBS and fixed with 4% paraformaldehyde for 20 min. Cells were co-immunostained for either α-tubulin. Cells were counterstained with DAPI to visualize the nucleus.
The integrity of the centrosome and mitotic spindles after 3-(decylamino)-5-phenylcyclohex-2-en-1-one treatment was examined. HepG2 cells were stained with antibody to α-tubulin to visualize the mitotic spindle (FIG. 7A-B). […] The circular prophase configurations were observed (FIG. 7B, top panel). One classic phenotype of the circular chromosome configuration is circular figures arranged on monopolar spindles around large centrosomes. No spindles assembly in metaphase was observed (FIG. 7B, lower panel).

HepG2 tumor implants = HepG2 tumor implants in nude mice, tumor growth; format: in vivo, athymic nude mice; conditions: compounds in drinking water (15 mg/kg/d), start at tumor size 0.1 cm^3 (FIG. 8)
Experimental: Mice were implanted with HepG2 cells (10^6 cells) through subcutaneous injection. 2 weeks later, once tumor size reaches ˜0.1 cm^3, mice were randomized and the treatment began by adding compounds to the drinking water ([…]). Tested compounds were: Vehicle, 3-(decylamino)-5-phenylcyclohex-2-en-1-one (BC1558), 3-(dibenzylamino)-5-phenylcyclohex-2-en-1-one (BC1634) or 3-((4-phenoxybenzyl)amino)-5-phenylcyclohex-2-en-1-one (BC1653). Tumor volume measurements over time were graphed (n=4-5 mice/group, *P<0.05 versus Vehicle).
As a complementary in vivo model, tumorogenicity was further assessed after implanting HepG2 cells along with 3-(decylamino)-5-phenylcyclohex-2-en-1-one, 3-(dibenzylamino)-5-phenylcyclohex-2-en-1-one, 3-((4-phenoxybenzyl)amino)-5-phenylcyclohex-2-en-1-one treatment in athymic nude mice. Mice were implanted with HepG2 cells through subcutaneous injection. Two weeks later, once tumor size reached 0.1 cm^3, the mice were randomized and the treatment began by adding compounds to the drinking water (15 mg/kg/d).

Compound: CCCCCCCCCCNC1=CC(=O)CC(c2ccccc2)C1 (centres unmarked) [BC1558, 3-(decylamino)-5-phenylcyclohex-2-en-1-one]
- cell morphology (HepG2 cells [1]): accumulation of rounded, apoptotic hepG2 cells
- apoptosis markers Clvd-caspase3 and Clvd-PARP ([2]; 10 μM, various times (FIG. 6A)): effectively increased
- apoptosis markers Clvd-caspase3 and Clvd-PARP ([2]; 48 h, various concentrations (FIG. 5A)): effectively increased
- integrity of the centrosome and mitotic spindles (HepG2 cells [3]): Abnormal cells with several representative mitotic abnormalities were also detected
- tumor size compared to the vehicle (HepG2 tumor implants): Significantly reduced tumor size
